Assays:
[1] = target: ACAT (Acyl-CoA: cholesterol acyltransferase) enzyme of rabbit liver microsome; assay: Inhibitory effect on ACAT enzyme (No.1), rabbit liver microsome; format: biochemical; conditions: Table 9
Procedure: 1) Inhibitory effect on ACAT (Acyl-CoA: cholesterol acyltransferase) enzyme (No.1)
Compounds of the invention were tested for their inhibitory effects on ACAT enzyme of rabbit liver microsome by the method of J. G. Heider (J. of Lipid Res., vol. 24, 1127-1134, 1983). More specifically, the test was done by measuring the amount of labelled cholesterol oleate ester produced from oleic acid CoA (coenzyme A) labelled by radiation.

[2] = target: ACAT enzyme of rabbit liver microsomes; assay: Inhibitory effect on ACAT enzyme (No.2), rabbit liver microsomes; format: biochemical; conditions: pH 7.4, 37° C., 60 minutes, Table 10
Procedure: (§1) 2) Inhibitory effect on ACAT (Acyl-CoA: cholesterol acyltransferase) enzyme (No.2)
(§2) [2-1] ACAT enzyme activities of rabbit liver and small intestine mucosa microsomes
(§3) A white male rabbit was fed with a […] cholesterol-containing food for four weeks and bleeding-slaughtered to extract its liver and small intestine. Microsomes of the liver and small intestine mucosa were prepared by the method of C. Marco et al. (Biochim. Biophys. Acta, 617, 458-471, 1980).
(§4) ACAT enzyme activities of the microsomes were determined by the method of J. G. Heider (J. Lipid Res., 24, 1127-1134, 1983). A test sample dissolved in 1% dimethylsulfoxide was added to a microsome fraction (100 μg), a phosphoric acid buffer (0.154M) having pH 7.4, 1-^14 C-oleoyl CoA (36 μM), dithiosleitol (2 mM) and bovine blood serum albumin (36 μg/ml). The reaction mixture adjusted to a final capacity of 0.5 ml was incubated at 37° C. for 60 minutes. A mixture (6 ml) of chloroform and methanol (2:1) was added and the reaction was stopped. Cholesterol oleate was extracted with chloroform and separated by thin-layer chromatography. ACAT enzyme activities of the microsome fractions were determined by radiation measurement.

[3] = target: T1, ACAT enzyme of rabbit small intestine mucosa microsomes (Oryctolagus cuniculus, UniProt G1SFD9); assay: Inhibitory effect on ACAT enzyme (No.2), rabbit small intestine mucosa microsomes; format: biochemical; conditions: pH 7.4, 37° C., 60 minutes, Table 10
T1 construct: Microsomes of the liver and small intestine mucosa were prepared; from tissue; host or cells: small intestine mucosa microsomes of a cholesterol-fed white male rabbit
T1 sequence (G1SFD9 1-524): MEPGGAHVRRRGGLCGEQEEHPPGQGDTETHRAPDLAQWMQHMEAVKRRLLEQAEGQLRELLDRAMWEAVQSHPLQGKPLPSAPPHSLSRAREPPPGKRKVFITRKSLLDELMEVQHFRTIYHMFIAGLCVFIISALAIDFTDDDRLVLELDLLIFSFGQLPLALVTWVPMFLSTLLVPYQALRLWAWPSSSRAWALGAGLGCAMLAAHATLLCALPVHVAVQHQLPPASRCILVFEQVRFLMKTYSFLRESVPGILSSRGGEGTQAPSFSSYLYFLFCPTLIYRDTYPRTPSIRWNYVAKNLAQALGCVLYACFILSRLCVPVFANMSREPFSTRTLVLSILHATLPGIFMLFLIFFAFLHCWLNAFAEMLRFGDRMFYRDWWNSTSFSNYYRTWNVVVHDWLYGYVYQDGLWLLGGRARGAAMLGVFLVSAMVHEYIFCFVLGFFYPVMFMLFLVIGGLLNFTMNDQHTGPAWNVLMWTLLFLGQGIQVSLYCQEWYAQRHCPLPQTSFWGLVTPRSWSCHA
Procedure: as §1, §2, §3, §4

[4] = tested on: ACAT enzyme of human HepG2 cells; assay: ACAT enzyme activity of human HepG2 cells (microsome fractions); format: biochemical; conditions: Table 11, read-out: IC50, inhibitory effect on ACAT enzyme activity, human HepG2
Procedure: as §4
(§5) [2-2] ACAT enzyme activities of human HepG2 and CaCo2 cells
(§6) Human HepG2 and CaCo2 cells purchased from ATCC (AMERICAN TYPE CULTURE COLLECTION) were used in this test.
(§7) Using RPMI 1640 medium for HepG2 and DMEM medium for CaCo2, HepG2 and CaCo2 cells were cultured with 40 ml of each medium containing 10% bovine blood serum, 50 I.U. of penicillin and 50 μg/ml of streptomycin in a 5% CO2 incubator at 37° C. The cells were then monolayer-culturedwith 80 ml of each medium containing […] of cholesterol and 5 μg/ml of 25-0H cholesterol in a 175 cm flask for 5 hours. The homogenizes of these cells were subjected to centrifugation at 105,000 g to collect microsome fractions. ACAT enzyme activities of the microsome fractions were determined by the above-mentioned method.

[5] = tested on: ACAT enzyme of human CaCo2 cells; assay: ACAT enzyme activity of human CaCo2 cells (microsome fractions); format: biochemical; conditions: Table 11, read-out: IC50, inhibitory effect on ACAT enzyme activity, human CaCo2
Procedure: as §4, §5, §6, §7

serum cholesterol [6] = assay: Serum cholesterol lowering effect in rat having high cholesterol [3-1]; format: in vivo, SD-type (Sprague-Dawley) male rat; conditions: oral, once a day for 5 days, dissolved in saline, Table 12
Procedure: 3) Cholesterol Lowering Effect
[3-1] Using a rat having high cholesterol, compounds of the invention were tested for their serum cholesterol lowering effects by the following method. A 6-week-old SD-type (Sprague-Dawley) male rat was fed with food containing 1% of cholesterol, 0.5% of cholic acid and 5% of olive oil for 2 days and then orally administered the food and a compound of the invention as dissolved in saline once a day for 5 days starting on day 3. Four hours after the final administration, a blood sample was taken. The total cholesterol in the serum of the test group was measured and compared with that of the control group.

serum cholesterol [7] = assay: Serum cholesterol lowering effect in rat having high cholesterol [3-2]; format: in vivo, SD-type (Sprague-Dawley) male rat; conditions: oral, once a day for the last 5 days, Tween 80 and saline suspension, Table 13
Procedure: [3-2] Using a rat having high cholesterol, compounds of the invention were tested for their serum cholesterol lowering effects by the following method. A 6-week-old SD-type (Sprague-Dawley) male rat was fed with food containing 1% of cholesterol, 0.5% of cholic acid and 5% of olive oil for 7 days. For the last 5 days, a test sample suspended in some drops of Tween 80 and saline was orally administered once a day. Four hours after the final administration, a blood sample was taken from celiac aorta of the rat under etherization. The total cholesterol in the serum of the test group was measured by the oxygen method and compared with that of the control group.

Row | IC50 [1] | IC50 [2] | IC50 [3] | IC50 [4] | IC50 [5] | Structure (SMILES) | Cholesterol lowering effect, % (serum total cholesterol vs control group) (serum cholesterol [6]; 3 mg/kg) | Cholesterol lowering effect, % (serum total cholesterol vs control group) (serum cholesterol [6]; 10 mg/kg) | Cholesterol lowering effect, % (serum total cholesterol vs control group) (serum cholesterol [7]; 1 mg/kg) | Cholesterol lowering effect, % (serum total cholesterol vs control group) (serum cholesterol [7]; 3 mg/kg)
1 | 0.025 µM | 0.042 µM | 0.03 µM | 0.0012 µM | 0.00052 µM | CC1CCC(N(C[C@H]2CC[C@H](CN(C(=O)Nc3ccc(N(C)C)cc3)C3CCC(C)CC3)CC2)C(=O)Nc2ccc(N(C)C)cc2)CC1 (relative stereo) [Example 28, Trans-1,4-bis[[3-(4-dimethylaminophenyl)-1-(4-methylcyclohexyl)ureido]methyl]cyclohexane] | 106% | 100% | 70.2% | 106.5%
2 | – | 0.083 µM | 0.018 µM | 0.00032 µM | 0.00022 µM | CN(C)c1ccc(NC(=O)N(C[C@H]2CC[C@H](CN(C(=O)Nc3ccc(N(C)C)cc3)C3CCCCCC3)CC2)C2CCCCCC2)cc1 [Example 22, Trans-1,4-bis[[1-cycloheptyl-3-(4-dimethyaminophenyl)ureido]methyl]cyclohexane] | – | – | 77.6% | 97.2%

Source: patent US5733931A, “Cyclohexanediurea derivative and process for its production” (Nissin Food Products Co., Ltd., priority 1993, dated 1998)
